These results are taken from ChEMBL document CHEMBL3352595, “Anti-inflammatory secoiridoid glycosides from Gentianella azurea” (Bioorg Med Chem Lett, 2014).

The test system of the experiment is RAW264.7. The experiment in a line: Anti-inflammatory activity in mouse RAW264.7 cells assessed as inhibition of LPS-induced nitric oxide production. The class given is functional, cell-based.
Regarding `C=C[C@H]1[C@H](O[C@@H]2O[C@H](COC(C)=O)[C@@H](O)[C@H](OC(C)=O)[C@H]2OC(C)=O)OC=C2C(=O)OCC[C@H]21`, the IC50 (as a rule, the concentration that gives 50% inhibition) is above 200 µM. Next, `C=C[C@H]1[C@H](O[C@@H]2O[C@H](COC(=O)c3cccc(O)c3O[C@@H]3O[C@H](CO)[C@@H](O)[C@H](O)[C@H]3O)[C@@H](O)[C@H](O)[C@H]2O)OC=C2C(=O)OCC[C@H]21`: above 200 µM; `C=C[C@H]1[C@H](O[C@@H]2O[C@H](CO)[C@@H](OC(=O)c3cccc(O)c3O[C@@H]3O[C@H](CO)[C@@H](O)[C@H](O)[C@H]3O)[C@H](O)[C@H]2O)OC=C2C(=O)OCC[C@H]21`: above 200 µM; `C=C[C@H]1[C@H](O[C@@H]2O[C@H](COC(=O)c3cccc(O)c3O[C@@H]3O[C@H](CO)[C@@H](O)[C@H](O)[C@H]3O)[C@@H](O)[C@H](OC(C)=O)[C@H]2OC(=O)c2cccc(O)c2O)OC=C2C(=O)OCC[C@H]21`: above 200 µM. Then `C=C[C@H]1[C@H](O[C@@H]2O[C@H](COC(C)=O)[C@@H](OC(C)=O)[C@H](OC(C)=O)[C@H]2O)OC=C2C(=O)OCC[C@H]21`, with above 200 µM; and `C=C[C@H]1[C@H](O[C@@H]2O[C@H](COC(=O)c3cccc(O)c3O[C@@H]3O[C@H](CO)[C@@H](O)[C@H](O)[C@H]3O)[C@@H](O)[C@H](O)[C@H]2OC(=O)c2cccc(O)c2O)OC=C2C(=O)OCC[C@H]21`, with above 200 µM; and `C=C[C@H]1[C@H](O[C@@H]2O[C@H](COC(C)=O)[C@@H](OC(C)=O)[C@H](O)[C@H]2OC(=O)c2cccc(O)c2O)OC=C2C(=O)OCC[C@H]21`, with 0.69 µM. Then `C=C[C@H]1[C@H](O[C@@H]2O[C@H](COC(C)=O)[C@@H](O)[C@H](OC(C)=O)[C@H]2OC(=O)c2cccc(O)c2O)OC=C2C(=O)OCC[C@H]21`, with above 200 µM; and `C=C[C@H]1[C@H](O[C@@H]2O[C@H](COC(C)=O)[C@@H](OC(C)=O)[C@H](O)[C@H]2OC(C)=O)OC=C2C(=O)OCC[C@H]21`, with 52.8 µM; and `C=C[C@H]1[C@H](O[C@@H]2O[C@H](COC(C)=O)[C@@H](OC(=O)c3cccc(O)c3O[C@@H]3O[C@H](CO)[C@@H](O)[C@H](O)[C@H]3O)[C@H](OC(C)=O)[C@H]2OC(=O)c2cccc(O)c2O)OC=C2C(=O)OCC[C@H]21`, with 5.18 µM.

For `C=C[C@H]1[C@H](O[C@@H]2O[C@H](CO)[C@@H](O)[C@H](O)[C@H]2OC(=O)/C=C/c2ccc(O)cc2)OC=C2C(=O)OCC[C@]21O`, the IC50 was above 200 µM.
